Measured values from ChEMBL document CHEMBL1136352, “Synthesis of 2-fluoronoraristeromycin and its inhibitory activity against Plasmodium falciparum S-adenosyl-L-homocysteine hydrolase” (Bioorg Med Chem Lett, 2003).

What was measured:
[1] = target: Adenosylhomocysteinase (Plasmodium falciparum 3D7, UniProt P50250); assay: Inhibitory activity against Plasmodium falciparum S-adenosyl-L-homocysteine hydrolase
[2] = target: Adenosylhomocysteinase (Homo sapiens, UniProt P23526); assay: Inhibitory activity against human S-adenosyl-L-homocysteine hydrolase
Chain of Adenosylhomocysteinase (Homo sapiens, UniProt P23526) (P23526 whole entry): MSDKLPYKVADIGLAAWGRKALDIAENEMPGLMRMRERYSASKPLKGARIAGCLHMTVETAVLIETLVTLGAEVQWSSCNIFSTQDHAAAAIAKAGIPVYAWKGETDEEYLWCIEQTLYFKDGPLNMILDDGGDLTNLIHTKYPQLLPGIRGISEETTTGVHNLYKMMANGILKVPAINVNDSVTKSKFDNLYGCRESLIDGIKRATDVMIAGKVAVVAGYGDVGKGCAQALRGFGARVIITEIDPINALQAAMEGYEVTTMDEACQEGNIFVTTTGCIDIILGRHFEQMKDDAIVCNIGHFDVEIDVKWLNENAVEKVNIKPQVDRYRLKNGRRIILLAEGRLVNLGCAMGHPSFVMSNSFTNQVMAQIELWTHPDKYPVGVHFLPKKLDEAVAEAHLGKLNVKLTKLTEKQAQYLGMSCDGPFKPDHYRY

[3] = tested on: Plasmodium falciparum; assay: Inhibitory activity against Plasmodium falciparum; format: functional, organism-based
[4] = tested on: FM3A; assay: Inhibitory activity against mammalian FM3A cell; format: functional, cell-based; details: Mus musculus

Chain of Adenosylhomocysteinase (Plasmodium falciparum 3D7, UniProt P50250) (P50250 whole entry): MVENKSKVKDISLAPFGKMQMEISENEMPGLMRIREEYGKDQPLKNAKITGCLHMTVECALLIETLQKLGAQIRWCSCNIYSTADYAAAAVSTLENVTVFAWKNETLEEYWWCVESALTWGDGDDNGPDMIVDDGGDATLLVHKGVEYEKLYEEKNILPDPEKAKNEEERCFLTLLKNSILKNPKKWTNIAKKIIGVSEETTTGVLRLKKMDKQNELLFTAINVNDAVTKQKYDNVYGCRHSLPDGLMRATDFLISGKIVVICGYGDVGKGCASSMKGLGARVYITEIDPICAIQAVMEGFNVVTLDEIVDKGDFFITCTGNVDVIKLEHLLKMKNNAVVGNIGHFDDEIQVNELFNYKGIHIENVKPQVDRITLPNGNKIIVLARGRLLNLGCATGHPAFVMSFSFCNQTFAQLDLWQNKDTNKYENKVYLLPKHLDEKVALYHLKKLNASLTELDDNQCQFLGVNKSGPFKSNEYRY

SMILES	IC50 [1]	Ki [1]	IC50 [2]	Ki [2]	EC50 [3]	EC50 [4]
Nc1ncnc2c1ncn2[C@@H]1C[C@H](O)[C@@H](O)[C@H]1O [NORARISTEROMYCIN]	3.1 µM	0.18 µM	1.1 µM	0.16 µM	7.4 µM	0.072 µM
Nc1nc(F)nc2c1ncn2[C@@H]1C[C@H](O)[C@@H](O)[C@H]1O	13 µM	0.48 µM	63 µM	7.9 µM	7.4 µM	7.2 µM
